Reference: US20100048921A1, “PHARMACEUTICALLY ACTIVE COMPOUNDS” (priority 2007, published 2010)

Test system: thrombocytes (platelet-rich plasma)
Assay: Collagen-induced thrombocyte aggregation in platelet-rich plasma (aggregometry, PAP-8E)
Type: cell-based, human
Details: for End point (FA) / Maximum aggregation (MA): substance 50 μM
Method: The substances used, genistein, glu-glu, DMSO, ala-ala were provided by the company Sigma-Aldrich, Munich. For the measurement, the Platelet Aggregation Profiler Model PAP-8E of the company Bio/Data Corporation, an 8-channel aggregometer with a computerised digital curve creation, has been used.
After the taking of a blood sample from a large calibre vein in unbuffered citrate 10%, the whole blood which is achieved by this is centrifugated with about 1,500 RPM for 10 min. The platelet-rich plasma (PRP) which is achieved by this then has to rest for 45 min. at ambient temperature. At the same time, […] for the creation of the respective blank values is gained from the same sample with common centrifugation. For the measurement, cuvettes with a volume of 0.25 ml are used.
Stock solutions of the substances to be tested, including genistein as well as the peptides ala-ala and glu-glu which are used, are prepared in a ratio of 1 mg on 1 ml, genistein as well as the tested coupling products in DMSO, glu-glu and ala-ala in H2O.

[1] = collagen 1 μg/ml, listed as genistein

O=c1c(-c2ccc(O)cc2)coc2cc(O)cc(O)c12 [Genistein, genistein]
active concentration which starts to be effective (collagen-induced aggregation, own specification): 50 µM | aggregation of the platelets (genistein 50 μM, collagen 1 μg/ml, reference (no additive) 90%): 82% | aggregation (genistein 100 μM, collagen 1 μg/ml, reference (no additive) 90%): 50% | thrombocyte aggregation (genistein 200 μM, collagen 1 μg/ml): almost completely inhibited | End point (FA) (collagen 1 μg/ml): 82% | Maximum aggregation (MA) (collagen 1 μg/ml): 85% | End point (FA) [1]: 82% | Maximum aggregation (MA) [1]: 85%
